Results: patent publication US9115092B2, “Substituted quinazoline and pyrido-pyrimidine derivatives” (Asana Biosciences, LLC, priority 2010, dated 2015)

What was measured:
[1] = molecular target: T1, PI3Kα (wild-type), P110/P85α (Homo sapiens, UniProt P42336); experiment: PI3 Kinase TR-FRET assay, PI3Kα (wild-type); assay type: biochemical
T1 construct: made in house; host or cells: SF9 insect cells
Description: The ability of compounds of the invention to inhibit PI3K activity was determined in a homogeneous TR-FRET assay using a PI3K assay kit (Millipore, USA; cat #33-016) according to manufacturer's instructions. PI3-Kinases (isoforms α, β, γ and δ) catalyze the phosphorylation of phosphatidylinositol, PIP2 to PIP3 in the presence of ATP and Mg^2+. The PIP3 product is detected by displacement of biotin-PIP3 from an energy transfer complex consisting of Europium labeled anti-GST monoclonal antibody, a GST-tagged PH domain, biotinylated PIP3 and Streptavidin-APC. Excitation of Europium in the complex results in an energy transfer to the APC and a fluorescence emission at 665 nm. The PIP3 product displaces biotin-PIP3 from the complex resulting in a loss of energy transfer and thus a decrease in signal.
To test for the ability of compounds to inhibit the activity of PI3Kα (wild-type), exemplary compounds of formula (I) were dissolved in DMSO and directly distributed into 384-well plates at a volume of 0.5 μL. 14.5 μL of P110/P85α/PIP2 mixture in buffer (obtained from the Millipore kit) containing MgCl2 (40 mM) and DTT (5 mM) was added to compound wells and incubated for 60 min at room temperature. P110/P85α was expressed in SF9 insect cells and purified nickel column extraction. Five ng of wild-type P110/P85α was used in the assay. The kinase reaction was started by the addition of ATP. The assay concentrations of both PIP2 and ATP were 10 μM. The reaction mixture was incubated for 30 min at room temperature and was terminated by the addition of stop mix and detection mix. Fluorescence was measured at 615 and 665 nm upon excitation at 340 nm in a Victor™ V5 fluorometer (Perkin Elmer, USA). The fluorescence emission ratio at 665 to 615 nm, proportional to the kinase activity, was plotted against the compound concentration to generate dose-response curves and IC50 values were determined using GraphPad Prism® 5 software.

[2] = molecular target: T2, mTOR kinase (Homo sapiens, UniProt P42345); experiment: mTOR kinase TR-FRET assay; assay type: biochemical; details: read-out: mTO R
T2 construct: purchased Millipore, USA
Description: Compound inhibition for mTOR kinase was determined in a homogeneous TR-FRET assay using the Lance® ULight-p70 S6K (Thr 389) peptide (obtained from Perkin-Elmer). The ULight™-labeled synthetic peptide contains the amino acid residues surrounding Thr389 of human p70 S6K. The ULight-p70 S6K peptide is phosphorylated at Thr389 by mTOR. Phosphorylation motif: LGFTYVAP as substrate.
The compound dilution was carried out in 100% DMSO followed by a buffer dilution. The reaction buffer was HEPES (50 mM pH 7.5), EGTA (1 mM), MnCl2 (3 mM). Test compounds at various concentrations were pre-incubated with mTOR (Millipore, USA; 5 ng) for 60 min, and then the Lance® ULight-p70 S6K (Thr 389) peptide (50 nM) was added along with ATP (20 μM). After incubating the reaction mixture for 60 min at room temperature, the kinase reaction was terminated by the addition of EDTA (10 mM) followed by the addition of detection mix, i.e., 1 nM Eu-labeled anti-phospho-substrate antibody (Perkin Elmer, USA). The fluorescence emission at […] was measured upon excitation at 340 nm. IC50 values were subsequently determined using a sigmoidal dose-response curve (variable slope) in GraphPad Prism® 5 software.
Compounds of formula (I) caused inhibition of mTOR kinase activity as determined by this assay.

T1 sequence (P42336 whole entry): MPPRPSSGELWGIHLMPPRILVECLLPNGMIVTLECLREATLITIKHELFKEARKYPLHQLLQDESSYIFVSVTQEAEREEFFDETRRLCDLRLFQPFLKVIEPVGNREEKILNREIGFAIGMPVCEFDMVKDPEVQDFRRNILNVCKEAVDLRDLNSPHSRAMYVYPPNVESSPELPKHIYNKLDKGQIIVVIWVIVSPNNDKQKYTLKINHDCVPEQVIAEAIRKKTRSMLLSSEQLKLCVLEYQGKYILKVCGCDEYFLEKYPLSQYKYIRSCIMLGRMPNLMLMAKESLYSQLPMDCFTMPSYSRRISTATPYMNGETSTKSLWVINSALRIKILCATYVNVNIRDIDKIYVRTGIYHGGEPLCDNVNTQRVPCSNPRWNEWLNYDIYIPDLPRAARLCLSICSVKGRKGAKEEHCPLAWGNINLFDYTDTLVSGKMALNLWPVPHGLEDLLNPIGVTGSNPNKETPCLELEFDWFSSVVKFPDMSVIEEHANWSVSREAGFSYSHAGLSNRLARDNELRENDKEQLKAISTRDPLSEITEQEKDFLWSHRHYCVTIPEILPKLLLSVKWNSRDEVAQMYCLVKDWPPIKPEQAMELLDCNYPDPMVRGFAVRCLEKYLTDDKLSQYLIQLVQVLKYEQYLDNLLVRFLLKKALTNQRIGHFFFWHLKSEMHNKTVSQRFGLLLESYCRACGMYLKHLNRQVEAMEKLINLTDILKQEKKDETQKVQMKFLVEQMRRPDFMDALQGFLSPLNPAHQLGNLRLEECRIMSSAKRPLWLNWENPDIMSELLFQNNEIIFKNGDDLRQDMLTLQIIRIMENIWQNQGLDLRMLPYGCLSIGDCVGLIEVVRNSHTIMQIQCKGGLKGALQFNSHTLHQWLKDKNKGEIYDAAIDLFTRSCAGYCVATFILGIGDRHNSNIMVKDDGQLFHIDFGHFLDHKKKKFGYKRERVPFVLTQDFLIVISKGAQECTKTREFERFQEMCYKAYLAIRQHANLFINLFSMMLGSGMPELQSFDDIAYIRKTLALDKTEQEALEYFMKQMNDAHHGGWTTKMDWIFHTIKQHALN
T1 sequence (P27986 whole entry partner): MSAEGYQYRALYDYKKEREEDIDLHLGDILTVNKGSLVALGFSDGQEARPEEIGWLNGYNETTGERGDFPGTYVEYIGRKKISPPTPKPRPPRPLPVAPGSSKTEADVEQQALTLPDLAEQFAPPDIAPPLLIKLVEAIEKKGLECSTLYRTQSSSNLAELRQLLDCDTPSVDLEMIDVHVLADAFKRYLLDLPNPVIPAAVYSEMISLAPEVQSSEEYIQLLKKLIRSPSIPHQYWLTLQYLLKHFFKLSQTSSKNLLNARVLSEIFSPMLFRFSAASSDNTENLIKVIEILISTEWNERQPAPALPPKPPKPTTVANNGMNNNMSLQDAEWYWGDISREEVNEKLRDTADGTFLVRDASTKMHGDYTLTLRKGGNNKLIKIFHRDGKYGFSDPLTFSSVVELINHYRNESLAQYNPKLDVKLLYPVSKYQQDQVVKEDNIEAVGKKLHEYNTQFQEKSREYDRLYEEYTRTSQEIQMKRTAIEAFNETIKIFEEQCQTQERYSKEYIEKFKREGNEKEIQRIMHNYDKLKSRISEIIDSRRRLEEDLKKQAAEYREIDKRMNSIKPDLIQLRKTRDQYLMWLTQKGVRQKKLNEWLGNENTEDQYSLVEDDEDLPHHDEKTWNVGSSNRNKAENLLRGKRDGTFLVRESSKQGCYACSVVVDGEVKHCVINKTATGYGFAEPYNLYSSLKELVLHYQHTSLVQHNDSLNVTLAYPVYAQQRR

IC50 [1] [nM] | IC50 [2] [nM] | Structure (SMILES)
50 to 200 | < 50 | CN(C)C(=O)c1ccc(NC(=O)Nc2ccc(-c3nc(N4CCOCC4)c4cc(F)c(-c5cnn(C)c5)cc4n3)cc2F)cc1 [Example 108, 4-(3-(2-fluoro-4-(6-fluoro-7-(1-methyl-1H-pyrazol-4-yl)-4-morpholino-quinazolin-2-yl)phenyl)ureidodimethyl-benzamide)-N,N-dimethyl-benzamide]
50 to 200 | 50 to 200 | CN(C)C(=O)c1ccc(NC(=O)Nc2ccc(-c3nc(N4CCOCC4)c4cc(F)c(-c5cccnc5)cc4n3)cc2F)cc1 [Example 109, 4-(3-(2-fluoro-4-(6-fluoro-4-morpholino-7-(pyridin-3-yl)quinazolin-2-yl)phenyl)ureido)-N,N-dimethyl-benzamide]
201 to 10000 | < 50 | CN(C)C(=O)c1ccc(NC(=O)Nc2ccc(-c3nc(N4CCOCC4)c4ccc(-c5cnc(N)nc5)cc4n3)cc2F)cc1 [Example 110, 4-(3-(4-(7-(2-aminopyrimidin-5-yl)-4-morpholino-quinazolin-2-yl)-2-fluorophenyl)ureido)-N,N-dimethyl-benzamide]
50 to 200 | 50 to 200 | CN(C)C(=O)c1ccc(NC(=O)Nc2ccc(-c3nc(N4CCOCC4)c4ccc(-c5ccco5)cc4n3)cc2F)cc1 [Example 114, 4-(3-(2-fluoro-4-(7-(furan-2-yl)-4-morpholino-quinazolin-2-yl)phenyl)ureido)-N,N-dimethyl-benzamide]
< 50 | 201 to 10000 | COc1ncc(-c2ccc3c(N4CCOCC4)nc(-c4ccc(NC(=O)Nc5ccc(C(=O)N(C)C)cc5)nc4)nc3c2)cn1 [Example 119, 4-(3-(5-(7-(2-methoxypyrimidin-5-yl)-4-morpholino-quinazolin-2-yl)pyridin-2-yl)ureido)-N,N-dimethyl-benzamide]
50 to 200 | 50 to 200 | Cc1ccc(-c2ccc3c(N4CCOCC4)nc(-c4ccc(NC(=O)Nc5ccc(C(=O)N(C)C)nc5)c(F)c4)nc3c2)o1 [Example 122, 5-(3-(2-fluoro-4-(7-(5-methylfuran-2-yl)-4-morpholino-quinazolin-2-yl)phenyl)ureido)-N,N-dimethylpicolinamide]
201 to 10000 | 50 to 200 | CC1CN(c2nc(-c3ccc(NC(=O)Nc4ccc(C(=O)N(C)C)cc4)cc3)nc3cc(-c4cnn(C)c4)cnc23)CC(C)O1 (stereo not shown) [Example 125, 4-(3-(4-(4-(2,6-dimethylmorpholino)-7-(1-methyl-1H-pyrazol-4-yl)pyrido[3,2-d]pyrimidin-2-yl)phenyl)ureido)-N,N-dimethyl-benzamide]
201 to 10000 | 201 to 10000 | CC1CN(c2nc(-c3ccc(NC(=O)Nc4ccc(C(=O)N(C)C)cc4)c(F)c3)nc3cc(-c4cnn(C)c4)cnc23)CC(C)O1 (stereo not shown) [Example 126, 4-(3-(4-(4-(2,6-dimethylmorpholino)-7-(1-methyl-1H-pyrazol-4-yl)pyrido[3,2-d]pyrimidin-2-yl)-2-fluorophenyl)ureido)-N,N-dimethyl-benzamide]
201 to 10000 | 201 to 10000 | Cc1ccc(-c2ccc3c(N4CCOCC4)nc(-c4ccc(NC(=O)Nc5ccc(C(=O)N(C)C)cc5F)cc4)nc3c2)o1 [Example 136, 3-fluoro-N,N-dimethyl-4-(3-(4-(7-(5-methylfuran-2-yl)-4-morpholino-quinazolin-2-yl)phenyl)ureido)-benzamide]
201 to 10000 | 201 to 10000 | CN(C)C(=O)c1ccc(NC(=O)Nc2ccc(-c3nc(N4CCOCC4)c4ccc(-c5cncnc5)cc4n3)cc2F)c(F)c1 [Example 139, 3-fluoro-4-(3-(2-fluoro-4-(4-morpholino-7-(pyrimidin-5-yl)quinazolin-2-yl)phenyl)ureido)-N,N-dimethyl-benzamide]
< 50 | 201 to 10000 | CN(C)C(=O)c1ccc(NC(=O)Nc2ccc(-c3nc(N4CCOCC4)c4ccc(-c5cncnc5)cc4n3)cn2)c(F)c1 [Example 140, 3-fluoro-N,N-dimethyl-4-(3-(5-(4-morpholino-7-(pyrimidin-5-yl)quinazolin-2-yl)pyridin-2-yl)ureido)-benzamide]
201 to 10000 | 50 to 200 | CN(C)C(=O)c1ccc(NC(=O)Nc2ccc(-c3nc(N4CCOCC4)c4ncc(-c5cnn(C)c5)cc4n3)cc2F)c(F)c1 [Example 141, 3-fluoro-4-(3-(2-fluoro-4-(7-(1-methyl-1H-pyrazol-4-yl)-4-morpholino-pyrido[3,2-d]pyrimidin-2-yl)phenyl)ureido)-N,N-dimethyl-benzamide]
50 to 200 | 50 to 200 | Cc1ccc(-c2ccc3c(N4CCOC(C)C4)nc(-c4ccc(NC(=O)Nc5ccc(C(=O)N(C)C)cc5)cc4)nc3c2)o1 (stereo not shown) [Example 142, N,N-dimethyl-4-(3-(4-(7-(5-methylfuran-2-yl)-4-(2-methylmorpholino)quinazolin-2-yl)phenyl)ureido)-benzamide]
50 to 200 | < 50 | CC1CN(c2nc(-c3ccc(NC(=O)Nc4ccc(C(=O)N(C)C)cc4)c(F)c3)nc3cc(-c4cncnc4)ccc23)CCO1 (stereo not shown) [Example 144, 4-(3-(2-fluoro-4-(4-(2-methylmorpholino)-7-(pyrimidin-5-yl)quinazolin-2-yl)phenyl)ureido)-N,N-dimethyl-benzamide]
< 50 | < 50 | CN(C)C(=O)c1ccc(NC(=O)Nc2ccc(-c3nc(N4CCOCC4)c4ncc(-c5cccnc5F)cc4n3)cc2)c(F)c1 [Example 145, 3-fluoro-4-(3-(4-(7-(2-fluoropyridin-3-yl)-4-morpholino-pyrido[3,2-d]pyrimidin-2-yl)phenyl)ureido)-N,N-dimethyl-benzamide]
< 50 | < 50 | CC1CN(c2nc(-c3ccc(NC(=O)Nc4ccc(C(=O)N(C)C)cc4)cc3)nc3cc(-c4cnn(C)c4)cnc23)CCO1 (stereo not shown) [Example 148, N,N-dimethyl-4-(3-(4-(7-(1-methyl-1H-pyrazol-4-yl)-4-(2-methylmorpholino)pyrido[3,2-d]pyrimidin-2-yl)phenyl)ureido)-benzamide]
50 to 200 | 50 to 200 | CN(C)C(=O)c1ccc(NC(=O)Nc2ccc(-c3nc(N4CCOCC4)c4cc(F)c(-c5ccco5)cc4n3)cc2)cc1 [Example 149, 4-(3-(4-(6-fluoro-7-(furan-2-yl)-4-morpholino-quinazolin-2-yl)phenyl)ureido)-N,N-dimethyl-benzamide]
< 50 | < 50 | CN(C)C(=O)c1ccc(NC(=O)Nc2ccc(-c3nc(N4CCOCC4)c4ccc(-c5cnc(O)nc5)cc4n3)cc2)cc1 [Example 150, 4-(3-(4-(7-(2-hydroxypyrimidin-5-yl)-4-morpholino-quinazolin-2-yl)phenyl)ureido)-N,N-dimethyl-benzamide]
50 to 200 | 50 to 200 | COc1ccc(-c2ccc3c(N4CCOCC4)nc(-c4ccc(NC(=O)Nc5ccc(C(=O)N(C)C)cc5)c(F)c4)nc3c2)cn1 [Example 151, 4-(3-(2-fluoro-4-(7-(6-methoxypyridin-3-yl)-4-morpholino-quinazolin-2-yl)phenyl)ureido)-N,N-dimethyl-benzamide]
< 50 | < 50 | CN(C)C(=O)c1ccc(NC(=O)Nc2ccc(-c3nc(N4CCOCC4)c4ncc(-c5cccnc5)cc4n3)cc2)c(F)c1 [Example 153, 3-fluoro-N,N-dimethyl-4-(3-(4-(4-morpholino-7-(pyridin-3-yl)pyrido[3,2-d]pyrimidin-2-yl)phenyl)ureido)-benzamide]
